Values after ≈ are worked out from the molar mass of the structure shown.
Assays:
[1] = molecular target: T1, Dihydroorotate dehydrogenase (quinone), mitochondrial (Homo sapiens, UniProt Q02127); assay: Inhibition of human DHODH at 100 nM for 30 mins relative to control
[2] = molecular target: T1, Dihydroorotate dehydrogenase (quinone), mitochondrial; assay: Inhibition of human DHODH incubated for 30 mins
[3] = molecular target: T1, Dihydroorotate dehydrogenase (quinone), mitochondrial; assay: Inhibition of human DHODH at 1 uM for 30 mins relative to control
[4] = molecular target: T1, Dihydroorotate dehydrogenase (quinone), mitochondrial; assay: Potency index, ratio of teriflunomide IC50 to test compound IC50 for human DHODH
[5] = Toxicity in BALB/c mouse assessed as change in blood RDW administered at 300 mg/kg, po for 14 days; format: organism-based; details: in vivo, 336 h, time 14 day
[6] = Toxicity in BALB/c mouse assessed as change in blood MCH administered at 300 mg/kg, po for 14 days; format: organism-based; details: in vivo, 336 h, time 14 day
[7] = Toxicity in BALB/c mouse assessed as change in blood MPV administered at 300 mg/kg, po for 14 days; format: organism-based; details: in vivo, 336 h, time 14 day
[8] = molecular target: Voltage-gated inwardly rectifying potassium channel KCNH2 (Homo sapiens, UniProt Q12809); assay: Inhibition of human ERG; format: toxicity
[9] = Lipophilicity, logP of compound; format: physicochemical; details: octanol/water
[10] = Cytotoxicity against human HL7702 cells incubated for 96 hrs by MTT assay; format: toxicity, cell-based, L02
[11] = Toxicity in BALB/c mouse assessed as change in blood RBC administered at 300 mg/kg, po for 14 days; format: organism-based; details: in vivo, 336 h, time 14 day
[12] = Cytotoxicity against human HCoEpiC cells incubated for 96 hrs by MTT assay; format: toxicity, cell-based
U-937 = assay: Antiproliferative activity against human U-937 cells incubated for 96 hrs by MTT assay; format: functional, cell-based; details: U-937, 96 h
[13] = Toxicity in BALB/c mouse assessed as change in blood lymphocytes administered at 300 mg/kg, po for 14 days; format: organism-based, Lymphocyte; details: in vivo, 336 h, time 14 day
[14] = Toxicity in BALB/c mouse assessed as change in blood PLT administered at 300 mg/kg, po for 14 days; format: organism-based; details: in vivo, 336 h, time 14 day
Kasumi 1 = assay: Antiproliferative activity against human Kasumi 1 cells incubated for 96 hrs by MTT assay; format: functional, cell-based; details: Kasumi 1, 96 h
[15] = Toxicity in BALB/c mouse assessed as change in blood neutrophil administered at 300 mg/kg, po for 14 days; format: organism-based; details: in vivo, 336 h, time 14 day
A-375 = assay: Antiproliferative activity against human A-375 cells incubated for 96 hrs by MTT assay; format: functional, cell-based; details: A-375, 96 h
[16] = Toxicity in BALB/c mouse assessed as histopathological changes in liver administered at 300 mg/kg, po for 14 days; format: organism-based; details: in vivo, 336 h, time 14 day
SUD4 = assay: Antiproliferative activity against human SU-DHL-4 cells incubated for 96 hrs by MTT assay; format: functional, cell-based; details: SU-DHL-4, 96 h
[17] = Toxicity in BALB/c mouse assessed as change in blood MCHC administered at 300 mg/kg, po for 14 days; format: organism-based; details: in vivo, 336 h, time 14 day
KG-1 = assay: Antiproliferative activity against human KG-1 cells incubated for 96 hrs by MTT assay; format: functional, cell-based; details: KG-1, 96 h
[18] = Toxicity in BALB/c mouse assessed as change in blood MCV administered at 300 mg/kg, po for 14 days; format: organism-based; details: in vivo, 336 h, time 14 day
[19] = Cytotoxicity against human NCM460 cells incubated for 96 hrs by MTT assay; format: toxicity, cell-based
[20] = Toxicity in BALB/c mouse assessed as histopathological changes in lung administered at 300 mg/kg, po for 14 days; format: organism-based; details: in vivo, 336 h, time 14 day
Raji = assay: Antiproliferative activity against human Raji cells incubated for 96 hrs by MTT assay; format: functional, cell-based
[21] = Toxicity in BALB/c mouse assessed as induction of liver inflammation administered at 300 mg/kg, po for 14 days; format: organism-based; details: in vivo, 336 h, time 14 day
[22] = Toxicity in BALB/c mouse assessed as histopathological changes in kidney administered at 300 mg/kg, po for 14 days; format: organism-based; details: in vivo, 336 h, time 14 day
[23] = Toxicity in BALB/c mouse assessed as change in blood HGB administered at 300 mg/kg, po for 14 days; format: organism-based; details: in vivo, 336 h, time 14 day
[24] = Selectivity index ratio of IC50 for human HL7702 cells to IC50 for human Raji cells; format: toxicity; details: HL7702 cells and Raji cells, read-out: Ratio IC50
[25] = Aqueous solubility of compound; format: physicochemical; details: buffer
HCT-116 = assay: Antiproliferative activity against human HCT-116 cells incubated for 96 hrs by MTT assay; format: functional, cell-based; details: HCT-116, 96 h
[26] = Toxicity in BALB/c mouse assessed as increase in albumin to globulin ratio administered at 300 mg/kg, po for 14 days; format: organism-based; details: in vivo, 336 h, time 14 day
[27] = Toxicity in BALB/c mouse assessed as histopathological changes in spleen administered at 300 mg/kg, po for 14 days; format: organism-based; details: in vivo, 336 h, time 14 day
[28] = Toxicity in BALB/c mouse assessed as change in blood HCT administered at 300 mg/kg, po for 14 days; format: organism-based; details: in vivo, 336 h, time 14 day
[29] = Toxicity in BALB/c mouse assessed as change in blood WBC administered at 300 mg/kg, po for 14 days; format: organism-based; details: in vivo, 336 h, time 14 day

T1 sequence (Q02127 whole entry): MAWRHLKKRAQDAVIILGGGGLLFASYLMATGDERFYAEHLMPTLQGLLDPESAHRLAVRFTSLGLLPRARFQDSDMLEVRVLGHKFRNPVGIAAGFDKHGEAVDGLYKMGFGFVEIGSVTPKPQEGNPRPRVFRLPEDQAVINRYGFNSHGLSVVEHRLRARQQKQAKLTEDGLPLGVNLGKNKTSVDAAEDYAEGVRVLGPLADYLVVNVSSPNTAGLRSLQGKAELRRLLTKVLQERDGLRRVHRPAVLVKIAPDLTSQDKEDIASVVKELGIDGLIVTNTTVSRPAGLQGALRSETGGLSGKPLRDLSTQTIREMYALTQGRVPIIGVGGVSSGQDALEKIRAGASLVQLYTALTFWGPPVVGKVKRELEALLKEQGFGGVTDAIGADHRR
Voltage-gated inwardly rectifying potassium channel KCNH2, sequence (Q12809 whole entry): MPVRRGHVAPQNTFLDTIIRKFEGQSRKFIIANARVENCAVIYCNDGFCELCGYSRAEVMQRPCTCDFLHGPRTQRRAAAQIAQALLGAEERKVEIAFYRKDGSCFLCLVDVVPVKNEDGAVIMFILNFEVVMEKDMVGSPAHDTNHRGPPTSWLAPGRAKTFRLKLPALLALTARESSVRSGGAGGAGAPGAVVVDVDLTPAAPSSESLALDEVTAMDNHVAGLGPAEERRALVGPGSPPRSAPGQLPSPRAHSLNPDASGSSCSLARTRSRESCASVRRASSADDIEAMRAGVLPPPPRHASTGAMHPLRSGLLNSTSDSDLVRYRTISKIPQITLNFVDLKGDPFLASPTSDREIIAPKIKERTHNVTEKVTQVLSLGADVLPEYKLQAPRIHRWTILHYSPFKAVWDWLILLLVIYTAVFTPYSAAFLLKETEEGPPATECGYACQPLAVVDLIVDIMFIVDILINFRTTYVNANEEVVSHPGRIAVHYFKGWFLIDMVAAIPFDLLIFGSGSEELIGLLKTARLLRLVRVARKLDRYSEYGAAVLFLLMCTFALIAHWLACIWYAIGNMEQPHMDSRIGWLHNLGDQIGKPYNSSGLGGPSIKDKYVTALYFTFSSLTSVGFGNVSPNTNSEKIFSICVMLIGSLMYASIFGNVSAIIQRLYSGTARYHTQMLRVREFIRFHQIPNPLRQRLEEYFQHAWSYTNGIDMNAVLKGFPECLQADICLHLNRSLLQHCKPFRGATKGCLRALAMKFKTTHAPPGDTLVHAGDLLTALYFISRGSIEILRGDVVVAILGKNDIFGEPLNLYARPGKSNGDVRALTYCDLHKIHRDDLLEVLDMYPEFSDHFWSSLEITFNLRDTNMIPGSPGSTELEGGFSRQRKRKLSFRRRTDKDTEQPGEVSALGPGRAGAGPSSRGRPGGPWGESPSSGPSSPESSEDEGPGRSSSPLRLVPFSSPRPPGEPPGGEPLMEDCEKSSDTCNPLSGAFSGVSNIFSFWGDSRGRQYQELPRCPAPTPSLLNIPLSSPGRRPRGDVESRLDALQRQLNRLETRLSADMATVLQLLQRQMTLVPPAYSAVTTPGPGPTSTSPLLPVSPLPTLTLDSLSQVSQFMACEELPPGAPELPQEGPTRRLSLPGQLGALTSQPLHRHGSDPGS

## O=C(c1ccccc1)c1ccc(Nc2ncccc2C(=O)O)cc1
[1]
  inhibition: 38.3%
[2]
  IC50: 0.178 µM
[3]
  inhibition: 80.4%

## C/C(O)=C(\C#N)C(=O)Nc1ccc(C(=O)c2ccccc2)c(F)c1
[1]
  inhibition: 31.7%
[3]
  inhibition: 74.1%

## O=C(c1ccccc1)c1ccc(Nc2ncccc2C(=O)O)c(F)c1
[1]
  inhibition: 57.7%
[2]
  IC50: 0.0661 µM
[3]
  inhibition: 86.3%

## COc1cccc(C(=O)c2cc(F)c(NC(=O)/C(C#N)=C(/C)O)cc2O[C@@H](C)C(F)(F)F)c1
[1]
  inhibition: 57.2%
[2]
  IC50: 0.0691 µM
[3]
  inhibition: 92.2%

## C/C(O)=C(\C#N)C(=O)Nc1ccc(C(F)(F)F)cc1
[1]
  inhibition: 21.5%

## C/C(O)=C(\C#N)C(=O)Nc1cc(O[C@@H](C)C(F)(F)F)c(C(=O)c2ccc(Cl)cc2)cc1F
[1]
  inhibition: 56.8%
[2]
  IC50: 0.0705 µM
[3]
  inhibition: 91.3%

## C/C(O)=C(\C#N)C(=O)Nc1cc(O[C@@H](C)C(F)(F)F)c(C#N)cc1F
[1]
  inhibition: 31.8%
[3]
  inhibition: 76.3%

## C/C(O)=C(\C#N)C(=O)Nc1cc(F)c(C(=O)c2ccccc2)cc1F
[1]
  inhibition: 43.8%
[3]
  inhibition: 76.3%

## CCOc1cc(NC(=O)/C(C#N)=C(/C)O)c(F)cc1C(=O)c1ccccc1
[1]
  inhibition: 49.8%
[3]
  inhibition: 83.1%

## C/C(O)=C(\C#N)C(=O)Nc1ccc(C(=O)c2ccccc2)cc1
[1]
  inhibition: 30.8%
[3]
  inhibition: 57.3%

## C/C(O)=C(\C#N)C(=O)Nc1cc(O[C@@H](C)C(F)(F)F)c(C(=O)c2ccccc2)cc1F
[1]
  inhibition: 71.5%
[2]
  IC50: 0.029 µM
[3]
  inhibition: 95.3%
[4]
  Ratio IC50: 14

## COc1ccc(C(=O)c2cc(F)c(NC(=O)/C(C#N)=C(/C)O)cc2O[C@@H](C)C(F)(F)F)cc1
[1]
  inhibition: 52.1%
[3]
  inhibition: 90%

## O=C(c1ccccc1)c1cc(F)c(Nc2ncccc2C(=O)O)c(F)c1
[1]
  inhibition: 67.2%
[2]
  IC50: 0.0351 µM
[3]
  inhibition: 90.4%

## C/C(O)=C(\C#N)C(=O)Nc1cc(O[C@@H](C)C(F)(F)F)c(C(=O)c2ccc3ccccc3c2)cc1F
[1]
  inhibition: 53.4%
[3]
  inhibition: 90.2%

## C/C(O)=C(\C#N)C(=O)Nc1cc(O[C@@H](C)C(F)(F)F)c(C(=O)c2ccc(F)cc2)cc1F
[1]
  inhibition: 56.4%
[2]
  IC50: 0.0718 µM
[3]
  inhibition: 91.6%

## C/C(O)=C(\C#N)C(=O)Nc1cc(O[C@@H](C)C(F)(F)F)c(C(=O)c2ccccc2F)cc1F
[5]
  Activity: Non-Toxic
[6]
  Activity: Non-Toxic
[7]
  Activity: Non-Toxic
[1]
  inhibition: 79.1%
[8]
  IC50: > 100 µM
[9]
  logP: 2.16
[10]
  IC50 at 96 h: 2.1 µM
[11]
  Activity: Non-Toxic
[12]
  IC50 at 96 h: 60.5 µM
U-937
  IC50: 0.52 µM
[13]
  Activity: Non-Toxic
[14]
  Activity: Non-Toxic
Kasumi 1
  IC50: 0.41 µM
[15]
  Activity: Non-Toxic
[2]
  IC50: 0.0239 µM
A-375
  IC50: 0.95 µM
[16]
  Activity: Toxic
SUD4
  IC50: 1.65 µM
[17]
  Activity: Non-Toxic
[3]
  inhibition: 96.9%
KG-1
  IC50: 0.53 µM
[18]
  Activity: Non-Toxic
[19]
  IC50 at 96 h: > 10 µM
[20]
  Activity: Non-Toxic
Raji
  IC50: 0.1 µM
[21]
  Activity: Toxic
[22]
  Activity: Non-Toxic
[23]
  Activity: Non-Toxic
[24]
  selectivity ratio: 21
[25]
  solubility: 109 µg/mL (≈ 241 µM)
HCT-116
  IC50: 0.64 µM
[26]
  Activity: Toxic
[27]
  Activity: Non-Toxic
[28]
  Activity: Non-Toxic
[29]
  Activity: Non-Toxic

## CCC(C)Oc1cc(NC(=O)/C(C#N)=C(/C)O)c(F)cc1C(=O)c1ccccc1 (stereo unspecified)
[1]
  inhibition: 65.4%
[2]
  IC50: 0.0356 µM
[3]
  inhibition: 90.1%

## COc1cc(NC(=O)/C(C#N)=C(/C)O)c(F)cc1C(=O)c1ccccc1
[1]
  inhibition: 48.5%
[3]
  inhibition: 82.4%

## C/C(O)=C(\C#N)C(=O)Nc1cc(OC(C)C)c(C(=O)c2ccccc2)cc1F
[1]
  inhibition: 66.1%
[2]
  IC50: 0.0371 µM
[3]
  inhibition: 89.9%

## C/C(O)=C(\C#N)C(=O)Nc1ccc(C(=O)c2ccccc2)cc1F
[1]
  inhibition: 32.1%
[3]
  inhibition: 70.7%

## O=C(c1ccccc1)c1ccc(Nc2ncccc2C(=O)O)c(Cl)c1
[1]
  inhibition: 62.4%
[2]
  IC50: 0.0635 µM
[3]
  inhibition: 88.1%

## C/C(O)=C(\C#N)C(=O)Nc1cc(O[C@@H](C)C(F)(F)F)c(C(=O)c2cccc(F)c2)cc1F
[1]
  inhibition: 59.3%
[2]
  IC50: 0.0635 µM
[3]
  inhibition: 92.1%

## C/C(O)=C(\C#N)C(=O)Nc1cc(O[C@@H](C)C(F)(F)F)c(C(=O)c2cccc(Cl)c2)cc1F
[1]
  inhibition: 61.8%
[2]
  IC50: 0.0548 µM
[3]
  inhibition: 93.7%

From ChEMBL document CHEMBL5352423, “Discovery of potent human dihydroorotate dehydrogenase inhibitors based on a benzophenone scaffold” (Eur J Med Chem, 2022)
